Measurements from patent US20250276983A1, “COMPOUNDS AND METHODS FOR MODULATING HER2” (IAMBIC THERAPEUTICS, INC., priority 2022, published 2025).
Where two headings read alike, the source gives them in different places.

What was measured:
wtEGFR = wtEGFR (Homo sapiens (Human), UniProt P00533); test: HotSpot radiometric kinase activity assay, wtEGFR; assay type: biochemical; conditions: 4 nM wtEGFR, 10 μM 33P-ATP, 20 min preincubation, 2 hours, read-out: EGFR WT IC50
Experimental: (§1) The purpose of the wtERBB2, ERBB2-A775_G776insYVMA (ERBB2YVMA), wtEGFR biochemical assay was to evaluate the inhibition (% inhibition and IC50 values) of the small molecule inhibitors by using the “HotSpot” radiometric kinase activity assay. HotSpot assays monitor the […] of kinase substrate by the radioactive gamma phosphate of adenosine triphosphate (33P-ATP) during biochemical reactions. HotSpot assays was performed in steps upon completion of the kinase reaction: deposition of a reaction mixture aliquot onto P81 ion exchange paper, extensive washing of the aforementioned P81 paper using phosphoric acid to remove unbound radiolabeled 33P-ATP from the P81 paper, and finally visualization and quantification of the dried P81 paper utilizing a phosphoimager. […] Typical reaction solutions (10 μL final reaction volume) contained the following buffer conditions: 20 mM Hepes (pH 7.5), 10 mM MgCl2, 1 mM EGTA, 0.01% Brij35, 0.02 mg/mL BSA, 0.1 mM Na3VO4, 2 mM DTT, 1% DMSO. The assay was primed by preparing a fresh 0.2 mg/mL solution of pEY (Sigma Cat: P7244) substrate in the reaction buffer and supplementing that solution with […] of MnCl2 as substrate cofactor (Sigma Cat: M9522). The kinase of interest was then added to the solution at the appropriate concentration (30 nM wtERBB2 from, or 20 nM ERBB2YVMA, or 4 nM wtEGFR) and gently mixed prior to delivery of compound in 100% DMSO by acoustic dispensing (Beckman Echo550). Compound, Kinase, and substrate were allowed to incubate for 20 min at room temperature prior to the initiation of the reaction by addition of 33P-ATP (PerkinElmer Cat: NEG602, final conc 10 μM). […] IC50 determinations were made from a plot of kinase activity as a function of inhibitor concentration fit to the 4-parameter IC50 equation with the enzyme concentration held constant using GraphPad Prism (San Diego).

BaF3_EGFRWT cells = test: Cell growth inhibition assay, BaF3_EGFRWT; assay type: cell-based; conditions: 72 h, 80 ng/mL recombinant human EGF, 3 days treatment, CellTiterGlo 2.0, read-out: EGFR WT IC50 (nM), cell growth inhibition
wtERBB2 = wtERBB2 (Homo sapiens (Human), UniProt P04626); test: HotSpot radiometric kinase activity assay, wtERBB2; assay type: biochemical; conditions: 30 nM wtERBB2, 10 μM 33P-ATP, 20 min preincubation, 2 hours, read-out: HER2 WT IC50
Chain of wtERBB2 (P04626 23-1255): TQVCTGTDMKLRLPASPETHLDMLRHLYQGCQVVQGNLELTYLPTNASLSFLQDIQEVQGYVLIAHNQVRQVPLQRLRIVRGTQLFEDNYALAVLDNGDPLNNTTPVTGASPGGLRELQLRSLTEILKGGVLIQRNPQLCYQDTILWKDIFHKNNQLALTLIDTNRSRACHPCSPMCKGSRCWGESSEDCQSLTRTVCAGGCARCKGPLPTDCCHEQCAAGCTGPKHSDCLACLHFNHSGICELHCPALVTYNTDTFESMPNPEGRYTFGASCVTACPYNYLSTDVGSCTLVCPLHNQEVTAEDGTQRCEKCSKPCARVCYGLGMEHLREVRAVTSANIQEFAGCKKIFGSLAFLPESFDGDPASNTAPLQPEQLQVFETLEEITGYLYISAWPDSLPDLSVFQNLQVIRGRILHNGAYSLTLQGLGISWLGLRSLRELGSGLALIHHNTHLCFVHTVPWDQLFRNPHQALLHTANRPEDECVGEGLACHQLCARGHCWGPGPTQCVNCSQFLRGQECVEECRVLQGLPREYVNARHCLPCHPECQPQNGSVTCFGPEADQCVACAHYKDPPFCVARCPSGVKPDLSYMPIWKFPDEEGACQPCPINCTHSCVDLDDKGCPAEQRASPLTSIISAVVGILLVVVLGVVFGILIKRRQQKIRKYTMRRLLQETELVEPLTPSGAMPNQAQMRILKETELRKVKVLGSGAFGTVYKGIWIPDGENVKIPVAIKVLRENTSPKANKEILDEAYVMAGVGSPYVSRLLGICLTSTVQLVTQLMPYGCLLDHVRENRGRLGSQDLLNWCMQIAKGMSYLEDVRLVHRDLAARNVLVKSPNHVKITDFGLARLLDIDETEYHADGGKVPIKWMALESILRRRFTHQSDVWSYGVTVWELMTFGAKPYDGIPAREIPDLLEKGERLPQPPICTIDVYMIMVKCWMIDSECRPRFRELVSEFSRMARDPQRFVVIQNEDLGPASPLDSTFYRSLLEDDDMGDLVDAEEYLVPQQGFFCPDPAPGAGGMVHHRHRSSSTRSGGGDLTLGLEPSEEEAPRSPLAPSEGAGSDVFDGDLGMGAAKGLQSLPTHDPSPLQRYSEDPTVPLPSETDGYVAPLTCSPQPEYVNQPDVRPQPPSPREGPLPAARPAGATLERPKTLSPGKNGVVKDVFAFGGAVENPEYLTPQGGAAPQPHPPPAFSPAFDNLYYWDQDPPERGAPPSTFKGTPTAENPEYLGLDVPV
Experimental: as §1

BaF3_HER2YVMA cells = test: Cell growth inhibition assay, BaF3_HER2YVMA; assay type: cell-based; conditions: 72 h, read-out: HER2-YVMA IC50 (nM), cell growth inhibition
BaF3_HER2WT cells = test: Cell growth inhibition assay, BaF3_HER2WT; assay type: cell-based; conditions: 72 h, 3 days treatment, CellTiterGlo 2.0, read-out: HER2 WT IC50 (nM), cell growth inhibition
[1] = BaF3_HER2YVMA cells, 3 days treatment, CellTiterGlo 2.0

Chain of wtEGFR (P00533 25-1210): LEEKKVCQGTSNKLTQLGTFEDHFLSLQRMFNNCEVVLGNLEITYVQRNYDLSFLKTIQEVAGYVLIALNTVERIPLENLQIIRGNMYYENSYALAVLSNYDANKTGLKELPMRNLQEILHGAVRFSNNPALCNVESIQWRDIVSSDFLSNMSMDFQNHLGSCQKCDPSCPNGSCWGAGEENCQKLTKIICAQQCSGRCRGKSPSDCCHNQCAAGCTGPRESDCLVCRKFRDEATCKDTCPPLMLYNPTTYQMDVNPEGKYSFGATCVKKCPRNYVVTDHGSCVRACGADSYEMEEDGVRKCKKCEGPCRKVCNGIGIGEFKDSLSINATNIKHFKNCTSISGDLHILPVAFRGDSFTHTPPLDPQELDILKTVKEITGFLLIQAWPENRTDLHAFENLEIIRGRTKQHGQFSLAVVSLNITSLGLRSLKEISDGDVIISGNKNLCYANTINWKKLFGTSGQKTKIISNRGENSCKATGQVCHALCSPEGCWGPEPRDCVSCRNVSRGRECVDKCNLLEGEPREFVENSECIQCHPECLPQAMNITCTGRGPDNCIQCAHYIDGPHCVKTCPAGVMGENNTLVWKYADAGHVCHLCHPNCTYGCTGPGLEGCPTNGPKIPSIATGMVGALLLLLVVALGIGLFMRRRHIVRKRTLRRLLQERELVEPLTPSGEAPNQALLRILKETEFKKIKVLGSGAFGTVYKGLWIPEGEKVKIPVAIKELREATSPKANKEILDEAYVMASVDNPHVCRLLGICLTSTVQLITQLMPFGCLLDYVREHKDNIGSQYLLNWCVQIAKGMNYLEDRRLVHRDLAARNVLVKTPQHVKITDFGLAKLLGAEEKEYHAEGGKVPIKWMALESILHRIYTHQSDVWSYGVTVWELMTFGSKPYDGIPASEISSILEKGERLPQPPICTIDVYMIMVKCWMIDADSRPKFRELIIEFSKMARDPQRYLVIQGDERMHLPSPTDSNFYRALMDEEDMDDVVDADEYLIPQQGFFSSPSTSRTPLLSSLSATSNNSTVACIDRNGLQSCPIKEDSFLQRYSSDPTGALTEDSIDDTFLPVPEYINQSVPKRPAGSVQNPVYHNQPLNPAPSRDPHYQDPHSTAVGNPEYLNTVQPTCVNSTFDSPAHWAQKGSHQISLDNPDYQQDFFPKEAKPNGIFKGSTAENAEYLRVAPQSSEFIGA

IC50 (wtEGFR) [nM] | IC50 (BaF3_EGFRWT cells) [nM] | IC50 (wtERBB2) [nM] | IC50 (BaF3_HER2YVMA cells; [1]) [nM] | IC50 (BaF3_HER2WT cells) [nM] | Structure (SMILES) | IC50 (BaF3_HER2YVMA cells) [nM]
< 200 |  | < 200 |  |  | Cc1cc(Nc2ncnn3ccc([C@@H]4CCN(C(=O)/C=C/CN(C)C)C4)c23)ccc1Oc1ccn2ncnc2c1 (single isomer, unassigned) [Example 99] | 
< 200 |  | < 200 |  |  | Cc1cc(Nc2ncnn3ccc([C@@H]4CCCN(C(=O)/C=C/CN(C)C)CC4)c23)ccc1Oc1ccn2ncnc2c1 (single isomer, unassigned) [Example 109] | 
< 200 |  | < 200 |  |  | C=CC(=O)N1CCC[C@@H](c2ccn3ncnc(Nc4ccc(Oc5ccn6ncnc6c5)c(C)c4)c23)CC1 (single isomer, unassigned) [Example 111] | 
< 200 | 1500 to 5000 | < 200 | < 200 | < 200 | Cc1cc(Nc2ncnn3ccc(C4CN(C(=O)/C=C/CN(C)C)C4)c23)ccc1Oc1ccn2ncnc2c1 [Example 1, (E)-1-(3-(4-((4-([1,2,4]triazolo[1,5-a]pyridin-7-yloxy)-3-methylphenyl)amino)pyrrolo[2,1-f][1,2,4]triazin-5-yl)azetidin-1-yl)-4-(dimethylamino)but-2-en-1-one] | 
< 200 | 1500 to 5000 | < 200 | < 200 | < 200 | C=CC(=O)N1CC(n2cc(-c3ccn4ncnc(Nc5ccc(Oc6ccn7ncnc7c6)c(C)c5)c34)cn2)C1 [Example 2, 1-(3-(4-(4-((4-([1,2,4]triazolo[1,5-a]pyridin-7-yloxy)-3-methylphenyl)amino)pyrrolo[2,1-f][1,2,4]triazin-5-yl)-1H-pyrazol-1-yl)azetidin-1-yl)prop-2-en-1-one] | 
< 200 | 500 to 1500 | < 200 | < 200 | < 200 | C=CC(=O)N1CCN(c2ccn3ncnc(Nc4ccc(Oc5ccn6ncnc6c5)c(C)c4)c23)CC1 [Example 6, 1-(4-(4-((4-([1,2,4]triazolo[1,5-a]pyridin-7-yloxy)-3-methylphenyl)amino)pyrrolo[2,1-f][1,2,4]triazin-5-yl)piperazin-1-yl)prop-2-en-1-one] | 
< 200 | 200 to 500 | < 200 | < 200 | < 200 | C=CC(=O)N1CCC(c2ccn3ncnc(Nc4ccc(Oc5ccn6ncnc6c5)c(C)c4)c23)CC1 [Example 7, 1-(4-(4-((4-([1,2,4]triazolo[1,5-a]pyridin-7-yloxy)-3-methylphenyl)amino)pyrrolo[2,1-f][1,2,4]triazin-5-yl)piperidin-1-yl)prop-2-en-1-one] | 
< 200 | 500 to 1500 | < 200 | < 200 | < 200 | C=CC(=O)N1CCCN(c2ccn3ncnc(Nc4ccc(Oc5ccn6ncnc6c5)c(C)c4)c23)CC1 [Example 8, 1-(4-(4-((4-([1,2,4]triazolo[1,5-a]pyridin-7-yloxy)-3-methylphenyl)amino)pyrrolo[2,1-f][1,2,4]triazin-5-yl)-1,4-diazepan-1-yl)prop-2-en-1-one] | 
< 200 | 1500 to 5000 | < 200 | 500 to 1500 | 200 to 500 | C=CC(=O)N1CC(c2ccn(-c3ccn4ncnc(Nc5ccc(Oc6ccn7ncnc7c6)c(C)c5)c34)n2)C1 [Example 10, 1-(3-(1-(4-((4-([1,2,4]triazolo[1,5-a]pyridin-7-yloxy)-3-methylphenyl)amino)pyrrolo[2,1-f][1,2,4]triazin-5-yl)-1H-pyrazol-3-yl)azetidin-1-yl)prop-2-en-1-one] | 
< 200 | 1500 to 5000 | < 200 | < 200 | < 200 | C=CC(=O)N1CCCC(c2ccn3ncnc(Nc4ccc(Oc5ccn6ncnc6c5)c(C)c4)c23)C1 (stereo not drawn) [Example 12, 1-(3-(4-((4-([1,2,4]triazolo[1,5-a]pyridin-7-yloxy)-3-methylphenyl)amino)pyrrolo[2,1-f][1,2,4]triazin-5-yl)piperidin-1-yl)prop-2-en-1-one] | 
< 200 | 1500 to 5000 | < 200 | < 200 | < 200 | Cc1cc(Nc2ncnn3ccc(C4CN(C(=O)/C=C/CN5CCCCC5)C4)c23)ccc1Oc1ccn2ncnc2c1 [Example 94, (E)-1-(3-(4-((4-([1,2,4]triazolo[1,5-a]pyridin-7-yloxy)-3-methylphenyl)amino)pyrrolo[2,1-f][1,2,4]triazin-5-yl)azetidin-1-yl)-4-(piperidin-1-yl)but-2-en-1-one] | 
< 200 | 1500 to 5000 | < 200 | 200 to 500 | < 200 | Cc1cc(Nc2ncnn3ccc(C4CCN(C(=O)/C=C/CN(C)C)C4)c23)ccc1Oc1ccn2ncnc2c1 (stereo not drawn) [Example 98, (E)-1-(3-(4-((4-([1,2,4]triazolo[1,5-a]pyridin-7-yloxy)-3-methylphenyl)amino)-pyrrolo-[2,1-f][1,2,4]triazin-5-yl)pyrrolidin-1-yl)-4-(dimethylamino)but-2-en-1-one] | 
< 200 | 1500 to 5000 | < 200 | < 200 | < 200 | Cc1cc(Nc2ncnn3ccc(C4CN(C(=O)/C=C/CN(C)C)C4)c23)ccc1Oc1ccc2c(c1)ncn2C [Example 101, (E)-4-(dimethylamino)-1-(3-(4-((3-methyl-4-((1-methyl-1H-benzo[d]imidazol-5-yl)oxy)phenyl)amino)pyrrolo[2,1-f][1,2,4]triazin-5-yl)azetidin-1-yl)but-2-en-1-one] | 
< 200 |  | < 200 |  |  | C=CC(=O)N1CCC[C@H](c2ccn3ncnc(Nc4ccc(Oc5ccn6ncnc6c5)c(C)c4)c23)CC1 [Example 112, (S)-1-(4-(4-((4-([1,2,4]triazolo[1,5-a]pyridin-7-yloxy)-3-methylphenyl)amino)pyrrolo[2,1-f][1,2,4]triazin-5-yl)azepan-1-yl)prop-2-en-1-one] | 
< 200 | 500 to 1500 | < 200 | < 200 | < 200 | C=CC(=O)N1CCC(c2ccn3ncnc(Nc4ccc(Oc5ccc6c(c5)ncn6C)c(C)c4)c23)CC1 [Example 113, 1-(4-(4-((3-methyl-4-((1-methyl-1H-benzo[d]imidazol-5-yl)oxy)phenyl)amino)pyrrolo[2,1-f][1,2,4]triazin-5-yl)piperidin-1-yl)prop-2-en-1-one] | 
 | 1500 to 5000 | < 200 | 1500 to 5000 | 200 to 500 | Cc1cc(Nc2ncnn3ccc(N4CC5(CCN(C(=O)/C=C/CN(C)C)C5)C4)c23)ccc1Oc1ccn2ncnc2c1 [Example 156, (2E)-4-(dimethylamino)-1-(2-{4-[(3-methyl-4-{[1,2,4]triazolo[1,5-a]pyridin-7-yloxy}phenyl)amino]pyrrolo[2,1-f][1,2,4]triazin-5-yl}-2,6-diazaspiro[3.4]octan-6-yl)but-2-en-1-one] | 

Structure (SMILES) | IC50 (wtEGFR) [nM] | IC50 (BaF3_EGFRWT cells) [nM] | IC50 (wtERBB2) [nM] | IC50 (BaF3_HER2YVMA cells; [1]) [nM] | IC50 (BaF3_HER2WT cells) [nM] | IC50 (BaF3_HER2YVMA cells) [nM]
COC1CCN(C/C=C/C(=O)N2CCC(c3ccn4ncnc(Nc5ccc(Oc6ccc7c(c6)ncn7C)c(C)c5)c34)CC2)C1 (racemic) [Example 106, (E)-4-(3-methoxypyrrolidin-1-yl)-1-(4-(4-((3-methyl-4-((1-methyl-1H-benzo[d]imidazol-5-yl)oxy)phenyl)amino)pyrrolo[2,1-f][1,2,4]triazin-5-yl)piperidin-1-yl)but-2-en-1-one] | < 200 | 1500 to 5000 |  |  |  | 
Cc1cc(Nc2ncnn3ccc(C4CN(C(=O)/C=C/CN5CCCC5)C4)c23)ccc1Oc1ccn2ncnc2c1 [Example 97, (E)-1-(3-(4-((4-([1,2,4]triazolo[1,5-a]pyridin-7-yloxy)-3-methylphenyl)amino)pyrrolo[2,1-f][1,2,4]triazin-5-yl)azetidin-1-yl)-4-(pyrrolidin-1-yl)but-2-en-1-one] | < 200 | 1500 to 5000 | < 200 |  | < 200 | < 200
Cc1cc(Nc2ncnn3ccc(C(=O)NCCCN(C)C)c23)ccc1Oc1ccn2ncnc2c1 [Example 178, 4-((4-([1,2,4]triazolo[1,5-a]pyridin-7-yloxy)-3-methylphenyl)amino)-N-(3-(dimethylamino)-propyl)pyrrolo[2,1-f][1,2,4]triazine-5-carboxamide] |  | > 5000 | < 200 | 1500 to 5000 | 200 to 500 | 
